Where “and” joins values, the source holds several entries; their conditions need not be identical. Identical values can stand only once.
Tests used:
rat [1] = assay: Castor oil diarrhoea test in the rat; assay type: in vivo
rat [2] = assay: Catalepsy in the rat (psychotropic action); assay type: in vivo
Excerpt: Elle a été évaluée par la recherche d'une catalepsie chez le rat.
Ces essais ont été réalisés avec des rats femelles indexes d'organisées pathogènes spécifiques pesant de 200 à 220 g.
L'effet cataleptique est mesuré en suspendant le rat par ses pattes antérieures au rebord de la cage d'expérience : un rat cataleptique reste dans cette position alors qu'un animal normal l'abandonne aussitôt, voire ne la prend pas du tout.
La catalepsie est appréciée de la façon suivante: • 0 : pas de catalepsie • 1 : catalepsie liminaire • 2 : catalepsie d'intensité moyenne • […] : catalepsie très prononcée
Les animaux sont traités par voie sous cutanée.
Les expériences ont été effectuées à l'aveugle, l'observateur ignorant les traitements.

[3] = molecular target: sites de liaison à haute et moyenne affinité de la leucine-enképhaline 3-R de membranes striatales de souris; assay: Competition with tritiated Leu-enkephalin binding on mouse striatal membranes; settings: displacement of a fixed concentration of Leucine-Enképhaline 3-H
Method: On a déterminé le pouvoir compétiteur des dérivés de l'invention vis-à-vis des sites de liaison à haute et moyenne affinité de la leucine-enképhaline 3-R de membranes striatales de souris.
Les conditions de préparation des membranes et d'incubation ont été les mêmes que celles qui sont décrites dans Audigier et Coll. (C. Acad. Sciences plus Euro- pean J. of Pharmacol.).
Des concentrations croissantes des divers composés synthétisés ont été opposées à une concentration fixe de Leucine-Enképhaline 3-H et les déplacements observés ont permis dans chaque cas de déterminer une constante d'inhi- bition (Ki).

souris = assay: Hot plate test in the mouse (analgesia); settings: 10 mg/kg compared with morphine 1 mg/kg, taking molarities into account
[4] = Acute toxicity in the mouse; design: species or system souris; settings: in vivo, IV route, read-out: D.L. 5a
Method: Les dérivés de formule générale I bénéficient d'une excellente tolérance et d'une faible toxicité qui a été plus particulièrement étudiée sur lés dérivés N° 12 et 13, qui ont fait l'objet d'une épreuve de toxicité aiguë chez la souris.
Les D.L. 5a obtenues sont respectivement de : • 725 ± 25 mg/kg par voie IV pour le dérivé.n° 12. • et 892 ± 31 mg/kg "" " pour le dérivé n° 13.

iléon de cobaye = iléon de cobaye (Cavia porcellus, UniProt A0ACM8Q262); assay: cell-based; assay type: cell-based; settings: for Activité Morphine =100: activity relative to morphine (= 100) in concomitant tests
Method: I. Action analgésique par rapport à la morphine comme substance de référence qui a été contrôlée • a) Sur organe isolé. - iléon de cobaye
On a utilisé la technique de stimulation transmu- rale de l'iléon de cobaye de PATON (W.D.M. PATON, "The rés- ponse of the guinea-pig ileum to electrical stimulation by coaxial electrodes" - J. Physiol. (London), 127, 40P-41P (1955) et PATON (W.D.M.) - Brit.J. Pharmacol. 11).
• - Les essais ont été réalisés dans une cuve de 35 ml irriguée par une solution de KREBS. • - Les stimulations électriques, supramaximales (6 par minute - […]) étaient ajustées à chaque essai. Courant rectangulaire - durée-0,5 milliseconde. • - Les concentrations des différents produits étudiés, ainsi que celles de la morphine qui a servi de corps de référence, sont exprimées en nanomoles (nM) par litre. • - Pour chaque concentration, le temps de contact a été de 3 minutes. Chaque essai était séparé du suivant par une période de 10 à 20 minutes. • - Les résultats sont exprimés en pourcentage d'inhibition de la concentration consécutive à la stimulation électri--que de l'iléon. On a ensuite calculé les doses actives 50 par la méthode de Parker et Waud (J. of pharmacology, 1971, 177, n°4) qui ont été comparées à celle de la morphine dans des essais concomitants.

Vas déferens de souris = Vas déferens de souris (Mus musculus, UniProt P32300); assay: Transmural electrical stimulation of mouse vas deferens (Hughes and Kosterlitz); assay type: cell-based; settings: contact time 3 minutes, read-out: % d'inhibition
Method: On a utilisé une technique de stimulation transmu- rale du canal différent de la souris, adaptée à celle décrite par HUCHES et KOSTERLITZ (J.HUGUES, H.W.KOSTERLITZ and Frances M.LESLIE, "Effect of morphine ou adrenergic transmission in the mouse vas deferens. Assessment of ago- nist and antagonist potencies of narcotic analgesics".-Br J. Pharmac. 53 371-381 (1975).
• - Les essais ont été réalisés dans une cuve de 7 ml irriguée par une solution de KREBS. • - Les stimulations électriques, supramaximales (6 par minute) étaient ajustées à chaque essai. • - Les concentrations des différents produits étudiés sont exprimées en nM par litre. • - Pour chaque concentration le temps de contact a été de 3 minutes. Dans les cas où le maximum d'inhibition a été atteint en un temps plus court, le fait a été signalé. Chaque essai était séparé du suivant par une période de 10 à 20 minutes. • - Les résultats sont exprimés en pourcentage d'inhibition de la concentration consécutive à la stimulation électrique du canal déférent. On a ensuite calculé les doses actives 50 par la méthode de Parker & Wand (J.Pharm. Exper. Therap.96-99 (1949).

[5] = 2 heures after product, oral 3 mg/kg, 10 rats
[6] = 2 heures after product, oral 10 mg/kg, 10 rats (Codéine base: 20 rats)
[7] = 2 heures after product, oral 30 mg/kg, 10 rats
[8] = 4 heures after product, oral 3 mg/kg, 10 rats
[9] = 4 heures after product, oral 10 mg/kg, 10 rats (Codéine base: 20 rats)
[10] = 4 heures after product, oral 30 mg/kg, 10 rats

Sequence of iléon de cobaye (A0ACM8Q262 1-400): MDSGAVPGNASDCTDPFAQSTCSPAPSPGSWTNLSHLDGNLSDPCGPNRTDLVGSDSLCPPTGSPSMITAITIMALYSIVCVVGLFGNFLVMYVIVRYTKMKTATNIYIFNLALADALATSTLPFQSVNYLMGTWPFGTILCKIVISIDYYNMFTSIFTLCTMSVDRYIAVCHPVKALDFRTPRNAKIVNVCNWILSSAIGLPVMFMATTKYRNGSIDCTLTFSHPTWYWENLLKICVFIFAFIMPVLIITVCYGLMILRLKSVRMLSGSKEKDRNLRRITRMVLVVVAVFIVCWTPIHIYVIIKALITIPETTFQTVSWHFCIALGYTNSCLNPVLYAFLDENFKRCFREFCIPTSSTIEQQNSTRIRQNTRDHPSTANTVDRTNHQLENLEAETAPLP
Sequence of Vas déferens de souris (P32300 whole entry): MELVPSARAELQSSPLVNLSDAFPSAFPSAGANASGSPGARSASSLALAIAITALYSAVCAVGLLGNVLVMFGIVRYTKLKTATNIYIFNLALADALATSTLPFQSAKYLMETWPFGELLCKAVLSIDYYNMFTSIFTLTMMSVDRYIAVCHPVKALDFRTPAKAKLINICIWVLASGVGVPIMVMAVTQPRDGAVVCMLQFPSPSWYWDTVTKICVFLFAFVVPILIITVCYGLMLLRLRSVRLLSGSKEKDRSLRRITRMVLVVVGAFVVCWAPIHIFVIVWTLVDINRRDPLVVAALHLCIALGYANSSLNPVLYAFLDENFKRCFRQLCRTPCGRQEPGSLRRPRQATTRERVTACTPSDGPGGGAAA

**Q.** What does the source list for `CN1CC[C@]23c4c5ccc(O)c4O[C@H]2[C@@H](O)C=C[C@H]3[C@H]1C5` [Morphine]?
**A.** Nombre d'animaux non diarrhéiques (rat [1]; rat, in vivo, po, 3 mg/kg): 9 and 5; Nombre d'animaux non diarrhéiques (rat [1]; rat, in vivo, po, 10 mg/kg): 10 and 8; D.A. 50/ sous cut. (rat [2]; rat, in vivo, sc): 2,5 mg/kg

**Q.** Which Ki [3] does the source give for `CC(C)C[C@H](NC(=O)[C@H](Cc1ccccc1)NC(=O)CNC(=O)CNC(=O)[C@@H](N)Cc1ccc(O)cc1)C(=O)O` [Leu-enképhaline, reference compound] here?
**A.** 5 ± 1.8 nM

**Q.** Which ED50 (rat [2]; Rattus norvegicus, sc, catalepsy, subcutaneous route, female rats, read-out: D.A. 50/ sous cut.) does the source give for `O=C(CCCN1CCC(O)(c2ccc(Cl)cc2)CC1)c1ccc(F)cc1` [Halopéridol] here?
**A.** 0.2 mg/kg

**Q.** With `CSCC[C@H](NC(=O)[C@H](Cc1ccccc1)NC(=O)CNC(=O)[C@@H](C)NC(=O)[C@@H](N)Cc1ccc(O)cc1)C(=O)NCCNS(=O)(=O)c1cccc2c(N(C)C)cccc12` [Dérivé n° 12, Tyr-D Ala- Gly-Phe-Met-NH-(CH2)2-NH-SO2 -X, dans lequel X est un groupe 5 diméthylamino-α-naphtyle] as the compound, how does the “coefficient d'activité” value (souris) read?
**A.** ~35%

**Q.** And the “Nombre d'animaux non diarrhéiques” value (rat [1]; [5])?
**A.** 6

**Q.** And the “Nombre d'animaux non diarrhéiques” value (rat [1]; [6])?
**A.** 10

**Q.** And the “Nombre d'animaux non diarrhéiques” value (rat [1]; [7])?
**A.** 10

**Q.** And the “Nombre d'animaux non diarrhéiques” value (rat [1]; [8])?
**A.** 3

**Q.** And the “Nombre d'animaux non diarrhéiques” value (rat [1]; [9])?
**A.** 6

**Q.** What about the “Nombre d'animaux non diarrhéiques” value (rat [1]; [10]) of the same compound?
**A.** 10

**Q.** What about the “action antidiarrhéique” value (rat [1]; statement in words, 30 mg/kg, four hours) of the same compound?
**A.** protège tous les animaux

**Q.** And the LD50 [4]?
**A.** 725 ± 25 mg/kg

**Q.** And the inhibition at 0.012 µM (iléon de cobaye; 12 nM/l, contact time 3 minutes, read-out: % d'inhibition)?
**A.** 28.3%

**Q.** What about the inhibition at 0.018 µM (iléon de cobaye; 18 nM/l, contact time 3 minutes, read-out: % d'inhibition) of the same compound?
**A.** 35.5%

**Q.** What about the inhibition at 0.024 µM (iléon de cobaye; 24 nM/l, contact time 3 minutes, read-out: % d'inhibition) of the same compound?
**A.** 51.3%

**Q.** And the inhibition at 0.06 µM (iléon de cobaye; 60 nM/l, contact time 3 minutes, read-out: % d'inhibition)?
**A.** 76.3%

**Q.** What about the “Activité Morphine =100” value (iléon de cobaye) of the same compound?
**A.** 147

**Q.** What about the inhibition at 0.0012 µM (Vas déferens de souris; 1,2 nM/l) of the same compound?
**A.** 41.8%

**Q.** What about the inhibition at 0.0018 µM (Vas déferens de souris; 1,8 nM/l) of the same compound?
**A.** 50%

**Q.** What about the inhibition at 0.0024 µM (Vas déferens de souris; 2,4 nM/l) of the same compound?
**A.** 63%

**Q.** And the “D.A. 50/ sous cut.” value (rat [2]; catalepsy, subcutaneous route, female rats)?
**A.** 5 mg/kg

**Q.** And the Ki [3]?
**A.** 5 ± 2 nM

**Q.** For `COc1ccc2c3c1O[C@H]1[C@@H](O)C=C[C@H]4[C@@H](C2)N(C)CC[C@@]341` [Codéine base, Codéine], which “Nombre d'animaux non diarrhéiques” value (rat [1]; [5]) is on record?
**A.** 7

**Q.** And the “Nombre d'animaux non diarrhéiques” value (rat [1]; [6])?
**A.** 19

**Q.** What about the “Nombre d'animaux non diarrhéiques” value (rat [1]; [7]) of the same compound?
**A.** 10

**Q.** What about the “Nombre d'animaux non diarrhéiques” value (rat [1]; [8]) of the same compound?
**A.** 4

**Q.** And the “Nombre d'animaux non diarrhéiques” value (rat [1]; [9])?
**A.** 14

**Q.** And the “Nombre d'animaux non diarrhéiques” value (rat [1]; [10])?
**A.** 8

**Q.** What does the source list for `CSCC[C@H](NC(=O)[C@H](Cc1ccccc1)NC(=O)CNC(=O)[C@@H](C)NC(=O)[C@@H](N)Cc1ccc(O)cc1)C(=O)NCCCCCNS(=O)(=O)c1cccc2c(N(C)C)cccc12` [Dérivé n° 13]?
**A.** LD50 [4]: 892 ± 31 mg/kg; inhibition at 0.15 µM (iléon de cobaye; 150 nM/l, contact time 3 minutes, read-out: % d'inhibition): 34.2%; inhibition at 0.3 µM (iléon de cobaye; 300 nM/l, contact time 3 minutes, read-out: % d'inhibition): 46.4%; inhibition at 0.6 µM (iléon de cobaye; 600 nM/l, contact time 3 minutes, read-out: % d'inhibition): 68.1%; Activité Morphine =100 (iléon de cobaye): 12,7; inhibition at 0.6 µM (Vas déferens de souris; 600 nM/l): 38%; inhibition at 0.75 µM (Vas déferens de souris; 750 nM/l): 55%; inhibition at 0.9 µM (Vas déferens de souris; 900 nM/l): 83.3%; inhibition at 1.5 µM (Vas déferens de souris; 1 500 nM/l): 90.5%; Ki [3]: 21 ± 5 nM

Source: patent EP0005658A1, “Peptide derivatives analogue to encephalines, process for their preparation and their therapeutical application” (Laboratoire le Brun S.A. Société dite:, priority 1978, dated 1979)
